Data on seven compounds can be found in ChEMBL document CHEMBL1921720, “A new antifungal briarane diterpenoid from the gorgonian Junceella juncea Pallas” (2011).

Molecules are shown by their SMILES. Activity calls are given as the source filed them. The calls are words filed in the database; no cut-off is given here.

Type in all cases: functional
For one test, the system named is Bacillus subtilis. Nature of the test: Antibacterial activity against Bacillus subtilis at 200 ug/mL after 24 hrs by agar cup diffusion method. Conditions: for zone of inhibition at 200 µg/mL: read-out: DIZ.
The test system of a further test is Penicillium chrysogenum. Nature of the test: Antifungal activity against Penicillium chrysogenum at 200 ug/mL after 48 hrs by agar cup diffusion assay.
In the next test the test system is Escherichia coli. Nature of the test: Antibacterial activity against Escherichia coli at 200 ug/mL after 24 hrs by agar cup diffusion method. Conditions: for zone of inhibition at 200 µg/mL: read-out: DIZ.
The test system of the next test is Bacillus pumilus. In words: Antibacterial activity against Bacillus pumilus at 200 ug/mL after 24 hrs by agar cup diffusion method. Conditions: for zone of inhibition at 200 µg/mL: read-out: DIZ.
Another test has as its system Proteus vulgaris. Nature of the test: Antibacterial activity against Proteus vulgaris at 200 ug/mL after 24 hrs by agar cup diffusion method. Conditions: for zone of inhibition at 200 µg/mL: read-out: DIZ.
A further test has as its system Aspergillus niger. In words: Antifungal activity against Aspergillus niger at 200 ug/mL after 48 hrs by agar cup diffusion assay. Conditions: for zone of inhibition at 200 µg/mL: read-out: DIZ.
Another test concerns Candida albicans. In words: Antifungal activity against Candida albicans at 200 ug/mL after 48 hrs by agar cup diffusion assay. The conditions noted are these: for zone of inhibition at 200 µg/mL: read-out: DIZ.

Regarding `C=C1CC[C@H](OC(C)=O)[C@@]2(C)[C@@H](OC(=O)CC(C)C)C[C@@H](OC(C)=O)[C@]3(CO3)[C@@H]2[C@H](OC(C)=O)[C@@]2(O)[C@H](C1)OC(=O)[C@@H]2C`, the “diameter of the inhibition zone (DIZ)” value in the test with Bacillus subtilis, in the test with Escherichia coli, with Bacillus pumilus and in the test with Proteus vulgaris was “inactive” throughout. For the same compound, the results for the zone of inhibition at 200 µg/mL in the test on Penicillium chrysogenum (read-out: DIZ), in the test with Aspergillus niger and in the test on Candida albicans were 16 mm, 18 mm and 17 mm, respectively.
Regarding `CC1(C)S[C@@H]2[C@H](NC(=O)[C@H](N)c3ccccc3)C(=O)N2[C@H]1C(=O)O` [AMPICILLIN], the zone of inhibition at 200 µg/mL with Bacillus subtilis worked out at 17 mm; with Escherichia coli it was 17 mm; in the test with Bacillus pumilus, 18 mm; in the test on Proteus vulgaris, 16 mm. Moreover, the “diameter of the inhibition zone (DIZ)” value in the test on Penicillium chrysogenum, with Aspergillus niger and in the test with Candida albicans was “inactive” in each case.
As for `C=C1CC[C@H](OC(C)=O)[C@@]2(C)[C@@H](OC(C)=O)[C@@H](OC(C)=O)[C@@H](OC(C)=O)[C@]3(CO3)[C@@H]2[C@H](OC(C)=O)[C@]2(O)[C@@H](C)C(=O)O[C@H]2[C@H]1Cl` [GEMMACOLIDE A], the zone of inhibition at 200 µg/mL came out at 10 mm with Bacillus subtilis; 20 mm with Escherichia coli; 19 mm in the test on Bacillus pumilus; 12 mm in the test with Proteus vulgaris; 10 mm with Aspergillus niger; 8 mm in the test on Candida albicans. In addition, the “diameter of the inhibition zone (DIZ)” value in the test on Penicillium chrysogenum is “inactive”.
With `C=C1CC[C@H](OC(C)=O)[C@@]2(C)[C@@H](OC(C)=O)[C@@H](OC(=O)CC(C)C)[C@@H](OC(C)=O)[C@]3(CO3)[C@@H]2[C@H](OC(C)=O)[C@]2(O)[C@@H](C)C(=O)O[C@H]2[C@H]1Cl` [GEMMACOLIDE B], the zone of inhibition at 200 µg/mL in the test with Bacillus subtilis was determined as 10 mm; in the test with Escherichia coli, 20 mm; in the test on Bacillus pumilus, 19 mm; in the test with Proteus vulgaris, 12 mm; in the test with Aspergillus niger, 10 mm; in the test with Candida albicans, 8 mm. The “diameter of the inhibition zone (DIZ)” value in the test with Penicillium chrysogenum was “inactive”.
`C=C1CC[C@H](OC(C)=O)[C@@]2(C)[C@@H](OC(=O)CC(C)C)C[C@@H](OC(C)=O)[C@]3(CO3)[C@@H]2[C@H](OC(C)=O)[C@]2(O)[C@@H](C)C(=O)O[C@H]2[C@H]1Cl` [JUNCIN H]: the zone of inhibition at 200 µg/mL in the test on Bacillus subtilis came to 12 mm; with Escherichia coli it was 14 mm; in the test with Bacillus pumilus, 10 mm; in the test on Proteus vulgaris it was 13 mm; with Aspergillus niger it was 6 mm. For the same compound, the “diameter of the inhibition zone (DIZ)” value in the test with Penicillium chrysogenum and in the test with Candida albicans was “inactive” each time.
On to `CC(=O)OCC1=C/[C@@H]2OC(=O)[C@H](C)[C@@]2(O)[C@@H](OC(C)=O)[C@H]2[C@@]3(CO3)[C@H](OC(=O)CC(C)C)C[C@H](OC(=O)CC(C)C)[C@]2(C)[C@@H](OC(C)=O)/C=C\1` [JUNCIN K], for which the zone of inhibition at 200 µg/mL in the test with Bacillus subtilis is 13 mm; in the test with Escherichia coli it was 15 mm; in the test on Bacillus pumilus, 13 mm; in the test on Proteus vulgaris it was 14 mm; in the test on Aspergillus niger, 8 mm. The “diameter of the inhibition zone (DIZ)” value in the test on Penicillium chrysogenum and with Candida albicans was “inactive” in each case.
`CC(=O)N1CCN(c2ccc(OCC3COC(Cn4ccnc4)(c4ccc(Cl)cc4Cl)O3)cc2)CC1` (centres undefined) [KETOCONAZOLE]: the “diameter of the inhibition zone (DIZ)” value in the test with Bacillus subtilis, in the test on Penicillium chrysogenum, in the test on Escherichia coli, with Bacillus pumilus and in the test with Proteus vulgaris was “inactive” in each case. For the same compound, the values for the zone of inhibition at 200 µg/mL in the test on Aspergillus niger and with Candida albicans were 24 mm and 21 mm, respectively.
